The source of these data is paper PMC3126777, “Selective anticancer activity of a hexapeptide with sequence homology to a non-kinase domain of Cyclin Dependent Kinase 4” (Molecular Cancer, 2011).

Where only a bound is given, the exact number is not on record here.

One data set concerns G361 Melanoma. The data set can be described thus: Response of cancer cell line to 200 μM THR53 (morphology, clonogenic assay). The format is cell-based, human. The settings on record: G361, 200 μM; morphological changes at 5 days, clonogenic assays at 15 days. Here is the method:
(§1) The appearances of the disintegrating colonies in Figure 4B were not dissimilar to those of "starbursts" earlier reported in human in vitro cancer cell colonies undergoing spontaneous cell death. Table 5 lists 11 cell lines with complete response to 200 μM THR53. This relatively homogeneous therapeutic response to the same critical dose of THR53 markedly contrasts with the wide range of variability of in-vitro dose response of different cancer cell lines typically seen with conventional chemotherapeutic agents In addition to showing lack of toxicity towards normal human diploid fibroblasts, THR53 and related cyclic amphiphilic PRGPRP-containing peptides were not cytotoxic to normal diploid human keratinocytes growing as primary cultures (Figure 2B) or to MRC5-hTERT immortalised fibroblasts (Figures 4A and 5A).
(§2) All cell lines were from certified sources.

The next data set has as its system MGHU-1 Carcinoma Bladder. The data set is described as above. The format is cell-based, human. The settings on record: MGHU-1, 200 μM; morphological changes at 5 days, clonogenic assays at 15 days. Here is the method: as §1, §2
The subject of data set [1] is RT112 human bladder cancer and H460 human non-small lung cancer cell lines. In words: Cell killing by cyclic amphiphilic peptides (viability and clonogenic survival). The format is cell-based.
Excerpt: Attempts to limit proteolysis and improve cell uptake, by incorporating the hexameric peptide sequence into cyclic peptide cassettes were undertaken, initially without success (Table 3,X-XIII). Linear constructs attaching PRGPRP to a known cell-internalising amphiphilic sequence were also unsuccessful (Table 3,XIV and 3XV). […] Selective toxicity to these cancer cell lines, and not normal fibroblasts, was retained (Table 4).
as §2

Data set [2] has as its system H460 human non-small cell lung cancer cells. The data set can be described thus: H460 cell killing at the dose chosen for assay comparison. The class given is cell-based. The settings on record: 100 μM, by 96 hours. On the procedure:
In order to probe the mechanism of PRGPRP analogue induced cell death, three assays were conducted on H460 human non-small cell lung cancer cells over a period of 96 hours following exposure to THR53 (Figure 7A). Total cellular protein was measured by sulphorhodamine B [31], mitochondrial oxidation/reduction was measured by Alamar Blue assay and cellular ATP level was measured by luciferase activity. A dose of 100 μM THR53 at which 50% of H460 cells were killed by 96 hours was chosen for assay comparison. […] An assay for autophagy was thus carried out which utilises a proprietary reagent (Cyto-ID Green) that specifically labels autophagolysosomes, co-localising with LC3, a specific autophagosome marker. 25 μM Chloroquine was used as a positive control agent known to induce autophagy. […] However, no difference in the mean fluorescent intensity was seen following treatment with 100 μM THR53 at either 72 h or 96 h, when compared with control.

For data set [3], the system named is NCI-H460 cells. The data set can be described thus: Cellular ATP levels (CellTiter-Glo assay). The conditions noted are these: H460, 100 μM THR53, between 48 and 96 hours, CellTiter-Glo luminescence. The format is cell-based, human. On the procedure:
Cellular ATP levels (CellTiter-Glo assay) Cells were grown, seeded and compound-treated as for the alamar Blue assay. A volume of the CellTiter-Glo reagent equal to the volume of cell culture media was added to the cells. Plates were mixed for 2 min on an orbital shaker to induce cell lysis before the plate was incubated at room temperature for 10 min to stabilize the signal. The luminescent signal was measured and the media only background was subtracted.
(In general: In ATP-based viability assays light output follows the ATP content of the culture.)

Data set [4] relates to NCI-H460 cells. The data set can be described thus: Mitochondrial function (alamar blue). The conditions noted are these: H460, 100 μM THR53, up to 96 hours, Alamar Blue. The class given is cell-based, human. Here is the method:
Mitochondrial function (alamar blue) NCI-H460 cells were grown in Ham's F12 media supplemented with 10% FCS. Cells were harvested and added to 96-well plates at densities of 250-1000. Compounds were made up from stock solutions and added directly to cells at the concentrations indicated. Cells were grown with compound for the indicated time at 37°C, 5% CO2, in a humidified atmosphere. Alamar Blue 10% (v/v) was then added and incubated for a further 4 h, and fluorescent product detected using the BMG FLUOstar plate reader. The media only background was subtracted and the data analysed as appropriate.
Background: The colour change of resazurin is a common sign of viable cells or microbes.

Data set [5] can be described thus: Preliminary pharmacokinetic experiments. The format is in vivo. The settings on record: maximum tolerated dose, species not given.

Regarding “Cyc-[FPPRGPRPVKLALKLALK] (head to tail) [THR53, cyclic amphiphilic analogue, Cyc-[…]]”, the “response to THR53” value in the data set on G361 Melanoma and in the data set on MGHU-1 Carcinoma Bladder was “total cell death” each time. Moreover, the “improvement in selective cancer cell cytotoxicity” value in data set [1] (cyclic amphiphilic cassettes compared with the earlier PRGPRP peptides) is “fifty- to a hundred-fold improvement”. Besides, in data set [1] (for the majority of cell lines), the “time at which cell killing reached a maximum” value is reported as at most 4 days. The substance also displayed an H460 cells killed in data set [2] of 50%. In the data set with NCI-H460 cells [3], the ATP levels result was “progressive diminution”. In addition, in the data set with NCI-H460 cells [4], the mitochondrial oxidation/reduction entry is “without change”. In addition, the plasma levels result in data set [5] was “low plasma levels which were not persistent”.
